One block for each molecule: values may come before it.
What was measured:
EWS-FLI1 [1] = test: Biotinylated isoxazole-mediated precipitation; format: biochemical
Method: (§1) These assays were performed as previously described (Kato et al., 2012) with slight modifications. Biotinylated isoxazole (b-isox, Sigma-Aldrich) was reconstituted in DMSO. Briefly, 5-10 million cells were resuspended in 1 mL lysis buffer (20 mM Tris-HCl pH 7.4, 150 mM NaCl, 5 mM MgCl2, 0.5% NP-40 and 10% glycerol supplemented with 1× Protease/Phosphatase inhibitors (Pierce), 0.1 mM PMSF and 20 mM betamercaptoethanol) and incubated for 30 minutes with rotation at +4° C. Protein supernatant was then collected after centrifugation for 15 min at 14000 rpm+4° C. A 5% whole cell extract (WCE) control was collected and the remaining proteins were divided into four aliquots before addition of biotinylated isoxazole at 0, 10, 30 100 uM final concentrations. 100 μg/mL RNase A (Life Technologies) was used for RNase treatment experiments. The Reaction solutions were incubated at +4° C. for 1 h with rotation and centrifuged for 15 min at 14000 rpm+4° C. Supernatant was saved for further analysis and pellets were washed twice in supplemented Lysis buffer before resuspension in Laemmli buffer. WCE, pellets and supernatants were analyzed by 4%-12% Tris-Glycine gradient gels (Life Technologies) and Western blotting was performed using standard protocols.

wild-type FLI1 = molecular target: T1, wild-type FLI1 (Homo sapiens, UniProt Q01543); test: Biotinylated isoxazole-mediated precipitation; format: biochemical; conditions: U2OS osteosarcoma cell lysates
T1 construct: expressed in transfected cells; host or cells: U2OS osteosarcoma cells, lentiviral expression
T1 sequence (Q01543 1-452): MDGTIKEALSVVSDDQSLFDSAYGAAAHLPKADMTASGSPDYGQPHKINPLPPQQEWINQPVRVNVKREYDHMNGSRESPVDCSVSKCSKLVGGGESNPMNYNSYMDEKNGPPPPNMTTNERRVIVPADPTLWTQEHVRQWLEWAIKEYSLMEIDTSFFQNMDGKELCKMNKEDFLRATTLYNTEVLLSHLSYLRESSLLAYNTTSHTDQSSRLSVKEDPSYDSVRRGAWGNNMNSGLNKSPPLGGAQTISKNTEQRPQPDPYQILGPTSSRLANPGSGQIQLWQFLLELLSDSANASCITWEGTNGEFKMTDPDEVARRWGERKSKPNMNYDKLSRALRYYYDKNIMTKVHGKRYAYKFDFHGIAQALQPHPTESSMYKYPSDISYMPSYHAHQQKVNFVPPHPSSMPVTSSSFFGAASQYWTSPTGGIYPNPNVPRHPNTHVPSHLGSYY
Method: as §1

[2] = molecular target: mSWI/SNF (BAF) complexes (human); test: cell-based or functional assay
EWS-FLI1 [3] = test: BAF155 ChIP-seq after shRNA knockdown of EWS-FLI1; format: cell-based; conditions: SK-N-MC cells, versus shGFP
Target sequence in this assay (as listed by the source): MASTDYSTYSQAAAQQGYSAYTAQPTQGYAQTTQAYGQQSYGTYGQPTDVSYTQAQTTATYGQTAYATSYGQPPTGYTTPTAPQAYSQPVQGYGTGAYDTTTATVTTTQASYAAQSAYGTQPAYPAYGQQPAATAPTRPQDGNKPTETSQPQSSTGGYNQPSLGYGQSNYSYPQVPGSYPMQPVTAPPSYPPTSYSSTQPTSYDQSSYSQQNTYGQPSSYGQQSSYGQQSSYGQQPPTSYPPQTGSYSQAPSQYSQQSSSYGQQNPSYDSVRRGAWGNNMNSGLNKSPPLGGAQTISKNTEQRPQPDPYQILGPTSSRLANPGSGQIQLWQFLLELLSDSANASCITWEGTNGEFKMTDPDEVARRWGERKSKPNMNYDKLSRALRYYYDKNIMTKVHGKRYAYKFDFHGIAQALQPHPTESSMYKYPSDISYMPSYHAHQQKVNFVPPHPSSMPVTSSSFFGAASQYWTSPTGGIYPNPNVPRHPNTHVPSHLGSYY

[4] = molecular target: mSWI/SNF (BAF) complexes (human); test: partial urea denaturation of nuclear extracts before anti-EWSR1 immunoprecipitation, immunoblot
EWS(YS37)-FLI1 = molecular target: T2, EWS(YS37)-FLI1 (human); test: co-immunoprecipitation with anti-V5 antibodies, HEK-293-T cells co-expressing HA- and V5-tagged proteins
T2 construct: EWS-FLI1 with all 37 tyrosines of the prion-like domain changed to serine; also called EWS(Y37)-FLI1; EWS(YS37)-FLI1 mutant protein
T2 chain: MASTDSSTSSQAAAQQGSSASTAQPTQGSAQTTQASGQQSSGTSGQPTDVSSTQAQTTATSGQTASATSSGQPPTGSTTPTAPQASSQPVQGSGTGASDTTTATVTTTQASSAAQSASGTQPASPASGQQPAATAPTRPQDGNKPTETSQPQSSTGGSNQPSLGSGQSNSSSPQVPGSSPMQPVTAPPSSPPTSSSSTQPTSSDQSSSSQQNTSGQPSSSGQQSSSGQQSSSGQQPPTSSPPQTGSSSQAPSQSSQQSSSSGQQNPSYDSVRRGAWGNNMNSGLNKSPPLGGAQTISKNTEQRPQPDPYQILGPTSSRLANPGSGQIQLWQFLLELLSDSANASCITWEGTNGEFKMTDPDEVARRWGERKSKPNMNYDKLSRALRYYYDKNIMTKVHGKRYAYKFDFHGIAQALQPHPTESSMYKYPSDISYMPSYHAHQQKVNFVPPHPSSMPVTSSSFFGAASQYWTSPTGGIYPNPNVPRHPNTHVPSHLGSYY

BAF155 ChIP-seq peak occupancy at EWS-FLI1-bound GGAA repeats, SK-N-MC cells [2]: 2 fold
Molecule: EWS-FLI1 fusion protein

urea concentration at which the interactions were decreased [4]: 0.5 M
Molecule: wild-type EWSR1 (from UniProt Q01844 1-656)

binding result (EWS(YS37)-FLI1): binds
B1: HA-tagged EWS(YS37)-FLI1 (other, not shown: small tags and cut ends)
chain: T2 chain
notes: also called HA-tagged mutant EWS-FLI1

The next lines start with the molecule.

Molecule: O=C1N[C@H]2[C@H](CS[C@H]2CCCCC(=O)OCCCCCCNC(=O)c2cc(-c3cccs3)on2)N1 [b-isox, biotinylated isoxazole]
precipitation of EWS-FLI1 (EWS-FLI1 [1]; 100 uM b-isox, Ewing sarcoma cell lysates): precipitates
precipitation of EWS-FLI1, dose dependence (EWS-FLI1 [1]; Ewing sarcoma cell lysates, b-isox 0, 10, 30, 100 uM): dose-dependent
precipitation of lentivirally expressed EWS-FLI1 (EWS-FLI1 [1]; U2OS osteosarcoma cell lysates): precipitates
precipitation of lentivirally expressed wild-type FLI1 (wild-type FLI1): but not wild-type FLI1

Molecule: shEWS-FLI1: shRNA, target FLI1, position 1917, sequence CGTCATGTTCTGGTTTGAGAT
BAF155 occupancy at EWS-FLI1 bound GGAA repeats (EWS-FLI1 [3]): decreased specifically at GGAA repeat regions

Reference: patent US20200206344A1, “METHODS FOR MODULATING THE INTERACTION BETWEEN EWS-FLI1 AND BAF COMPLEXES” (Dana-Farber Cancer Institute, Inc., priority 2017, published 2020)
